Key:
Assay type in all cases: in vivo
Conditions in all cases: 1000 g/Ha, evaluated after 13 days, glasshouse
Setaria faberi (SETFA) [1] = experiment: Post-emergence herbicidal activity, percentage damage to SETFA
Procedure: (§1) Seeds of a variety of test species are sown in standard soil in pots Amaranthus palmeri (AMAPA), Amaranthus retroflexus (AMARE), Setaria faberi (SETFA), Echinochloa crus-galli (ECHCG), Ipomoea hederacea (IPOHE),). After cultivation for one day (pre-emergence) or after 8 days cultivation (post-emergence) under controlled conditions in a glasshouse (at 24/160C, day/night; 14 hours light; 65% humidity), the plants are sprayed with an aqueous spray solution derived from the dissolution of the technical active ingredient in a small amount of acetone and a special solvent and emulsifier mixture referred to as IF50 (11.12% Emulsogen EL360 TM+44.44% N-methylpyrrolidone+44.44% Dowanol DPM glycol ether, which was then diluted to required concentration using 0.2% Genapol XO80 (CAS No. 9043-30-5) in water as the diluent. Compounds are applied at the rates stated. The test plants are then grown in a glasshouse under controlled conditions in a glasshouse (at 24/160C, day/night; 14 hours light; 65% humidity) and watered twice daily. After 13 days for pre and post-emergence, the test is evaluated for the percentage damage caused to the plant. The biological activities are shown in the following table on a five-point scale (5=81-100%; 4=61-80%; 3=41-60%; 2=21-40%; 1=0-20%; NT=not tested).

[2] = tested on: Echinochloa crus-galli (ECHCG); experiment: Pre-emergence herbicidal activity, percentage damage to ECHCG
Procedure: as §1

[3] = tested on: Amaranthus retroflexus (AMARE); experiment: Pre-emergence herbicidal activity, percentage damage to AMARE
Procedure: as §1

[4] = tested on: Amaranthus palmeri (AMAPA); experiment: Pre-emergence herbicidal activity, percentage damage to AMAPA
Procedure: as §1

[5] = tested on: Amaranthus retroflexus (AMARE); experiment: Post-emergence herbicidal activity, percentage damage to AMARE
Procedure: as §1

[6] = tested on: Echinochloa crus-galli (ECHCG); experiment: Post-emergence herbicidal activity, percentage damage to ECHCG
Procedure: as §1

Setaria faberi (SETFA) [7] = experiment: Pre-emergence herbicidal activity, percentage damage to SETFA
Procedure: as §1

[8] = tested on: Ipomoea hederacea (IPOHE); experiment: Post-emergence herbicidal activity, percentage damage to IPOHE
Procedure: as §1

[9] = tested on: Amaranthus palmeri (AMAPA); experiment: Post-emergence herbicidal activity, percentage damage to AMAPA
Procedure: as §1

[10] = tested on: Ipomoea hederacea (IPOHE); experiment: Pre-emergence herbicidal activity, percentage damage to IPOHE
Procedure: as §1

Compound | percentage damage caused to the plant (SETFA) (Setaria faberi (SETFA) [1]) | percentage damage caused to the plant (ECHCG) [2] | percentage damage caused to the plant (AMARE) [3] | percentage damage caused to the plant (AMAPA) [4] | percentage damage caused to the plant (AMARE) [5] | percentage damage caused to the plant (ECHCG) [6] | percentage damage caused to the plant (SETFA) (Setaria faberi (SETFA) [7]) | percentage damage caused to the plant (IPOHE) [8] | percentage damage caused to the plant (AMAPA) [9] | percentage damage caused to the plant (IPOHE) [10]
O=C(O)C[C@@H]1[C@@H]2C[C@@H]2C(=O)N1Cc1ccc(Cl)c(F)c1 (relative stereo) [A.79, 2-[(1R*,2R*,5S*)-3-[(3-fluoro-4-chloro)methyl]-4-oxo-3-azabicyclo[3.1.0]hexan-2-yl]acetic acid] | 4 (61-80%) | 2 (21-40%) | 1 (0-20%) | 1 (0-20%) | 1 (0-20%) | 1 (0-20%) | 4 (61-80%) | 1 (0-20%) | 1 (0-20%) | 1 (0-20%)
O=C(O)C[C@@H]1[C@@H]2C[C@@H]2C(=O)N1Cc1ccc(F)c(Cl)c1 (relative stereo) [A.82, 2-[(1R*,2R*,5S*)-3-[(3-chloro-4-fluoro)methyl]-4-oxo-3-azabicyclo[3.1.0]hexan-2-yl]acetic acid] | 4 (61-80%) | 1 (0-20%) | 2 (21-40%) | 2 (21-40%) | 2 (21-40%) | 1 (0-20%) | 4 (61-80%) | 2 (21-40%) | 1 (0-20%) | 1 (0-20%)
O=C(O)C[C@H]1[C@@H]2C[C@@H]2C(=O)N1Cc1cccc(F)c1F (relative stereo) [Compound A.04, 2-[(1R*,2S*,5S*)-3-[(2,3-difluorophenyl)methyl]-4-oxo-3-azabicyclo[3.1.0]hexan-2-yl]acetic acid] | 4 (61-80%) | 2 (21-40%) | 2 (21-40%) | 2 (21-40%) | 1 (0-20%) | 3 (41-60%) | 3 (41-60%) | 1 (0-20%) | 1 (0-20%) | 1 (0-20%)
COC(=O)C[C@@H]1[C@@H]2C[C@@H]2C(=O)N1Cc1cccc(F)c1F (relative stereo) [Compound A.07, methyl 2-[(1R*,2R*,5S*)-3-[(2,3-difluorophenyl)methyl]-4-oxo-3-azabicyclo[3.1.0]hexan-2-yl]acetate] | 4 (61-80%) | 4 (61-80%) | 4 (61-80%) | 3 (41-60%) | 3 (41-60%) | 3 (41-60%) | 5 (81-100%) | 3 (41-60%) | 3 (41-60%) | 2 (21-40%)
O=C(O)C[C@@H]1[C@@H]2C[C@@H]2C(=O)N1Cc1ccc(F)c(F)c1F (relative stereo) [Compound A.13, 2-[(1R*,2R*,5S*)-3-[(2,3,4-trifluorophenyl)methyl]-4-oxo-3-azabicyclo[3.1.0]hexan-2-yl]acetic acid] | 5 (81-100%) | 3 (41-60%) | 4 (61-80%) | 3 (41-60%) | 3 (41-60%) | 3 (41-60%) | 5 (81-100%) | 2 (21-40%) | 2 (21-40%) | 4 (61-80%)
O=C(O)C[C@H]1[C@@H]2CCCC[C@@H]2C(=O)N1Cc1cccc(F)c1F (relative stereo) [E.04, 2-[(1S*,3aS*,7aR*)-2-[(2,3-difluorophenyl)methyl]-3-oxo-3a,4,5,6,7,7a-hexahydro-1H-isoindol-1-yl]acetic acid] | 1 (0-20%) | 1 (0-20%) | 4 (61-80%) | 4 (61-80%) | 1 (0-20%) | 1 (0-20%) | 3 (41-60%) | 1 (0-20%) | 1 (0-20%) | 1 (0-20%)
